Laboratory results as given in patent publication US10005769B2, “2,3-dihydrobenzofuran-5YL compounds as DYRK kinase inhibitors” (4SC DISCOVERY GMBH, priority 2013, dated 2018).

These molecules were tested against DYRK1B (Homo sapiens (Human), UniProt Q9Y463) (assay: DYRK1B Kinase Assay (33P ATP, DYRKtide substrate, Reaction Biology Corp.)). Conditions: 0.3 nM DYRK1B, 20 μM DYRKtide, 10 μM ATP, 25° C., 120 min.
Type: biochemical
Method: The assay was carried out by Reaction Biology Corp., […], Pa., USA according to specifications by Reaction Biology Corp., as detailed herein below and further described in Anastassiadis et al., Nature Biotechnology, 29 (2011) 1039-1045. The substrate DYRKtide (synthetic peptide RRRFRPASPLRGPPK) was dissolved in freshly prepared Base Reaction Buffer (20 mM Hepes (pH 7.5), 10 mM MgCl2, 1 mM EGTA, 0.02% Brij35, 0.02 mg/ml BSA, 0.1 mM Na3VO4, 2 mM DTT, 1% DMSO) at a concentration of 20 μM. DYRK1B was added to the substrate solution in a concentration of 0.3 nM and gently mixed. Dilution series of the compounds according to the present invention in DMSO were prepared. Each dilution was added to a batch of the above reaction mix, followed 20 min later by addition of a mixture of ATP and ^33P ATP (specific activity 0.01 μCi/μl final) to a final concentration of 10 μM. Reactions were carried out at 25° C. for 120 min, followed by spotting the reactions onto P81 ion exchange filter paper. Unbound phosphate was removed by extensive washing of the filters in 0.75% phosphoric acid. […] IC50 values and curve fits were obtained using Prism (Graph Pad Software). DYRK1B used in the above assays are further described in the below table: [table] Exemplary compound dilution series, final concentrations of compound in the assay vessel; the individual concentrations and the range of concentrations covered by the dilution series may differ for each compound, as long as enough data points are obtained to determine the compound's IC50: DYRK 1[…].

Sequence of DYRK1B (Q9Y463 whole entry): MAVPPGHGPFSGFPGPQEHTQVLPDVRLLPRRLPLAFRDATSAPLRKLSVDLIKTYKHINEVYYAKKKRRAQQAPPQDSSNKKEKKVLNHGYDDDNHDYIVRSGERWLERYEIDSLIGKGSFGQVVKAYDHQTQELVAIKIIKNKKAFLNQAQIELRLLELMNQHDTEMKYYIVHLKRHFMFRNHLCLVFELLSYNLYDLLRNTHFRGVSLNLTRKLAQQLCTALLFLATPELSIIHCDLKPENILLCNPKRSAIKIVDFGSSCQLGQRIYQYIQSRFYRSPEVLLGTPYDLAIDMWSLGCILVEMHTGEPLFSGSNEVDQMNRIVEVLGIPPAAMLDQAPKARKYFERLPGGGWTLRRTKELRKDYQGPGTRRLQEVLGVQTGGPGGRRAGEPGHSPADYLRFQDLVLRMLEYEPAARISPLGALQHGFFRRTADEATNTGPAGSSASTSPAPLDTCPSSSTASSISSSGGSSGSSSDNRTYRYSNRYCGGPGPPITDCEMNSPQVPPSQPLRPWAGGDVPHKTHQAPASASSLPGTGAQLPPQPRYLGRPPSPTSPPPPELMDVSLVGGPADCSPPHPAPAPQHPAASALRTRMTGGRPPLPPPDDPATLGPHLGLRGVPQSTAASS

Row | IC50 [nM] | SMILES
1 | 152 | COC(=O)c1n[nH]c(NC(=O)c2csc(-c3ccc4c(c3)CCO4)n2)n1 [Compound 15, Methyl 5-(2-(2,3-dihydrobenzofuran-5-yl)thiazole-4-carboxamido)-1H-1,2,4-triazole-3-carboxylate]
2 | 177 | O=C(Nc1ncccc1O)c1csc(-c2ccc3c(c2)CCO3)n1 [Compound 16, 2-(2,3-Dihydrobenzofuran-5-yl)-N-(3-hydroxypyridin-2-yl)thiazole-4-carboxamide]
3 | 19.5 | N#Cc1ccnc(NC(=O)c2csc(-c3ccc4c(c3)CCO4)n2)c1 [Compound 18, N-(4-Cyanopyridin-2-yl)-2-(2,3-dihydrobenzofuran-5-yl)thiazole-4-carboxamide]
4 | 18.3 | CSc1nnc(NC(=O)c2csc(-c3ccc4c(c3)CCO4)n2)[nH]1 [Compound 21, 2-(2,3-Dihydrobenzofuran-5-yl)-N-(5-(methylthio)-4H-1,2,4-triazol-3-yl)thiazole-4-carboxamide]
5 | 17.8 | CC(C)Sc1n[nH]c(NC(=O)c2csc(-c3ccc4c(c3)CCO4)n2)n1 [Compound 24, 2-(2,3-Dihydrobenzofuran-5-yl)-N-(3-(isopropylthio)-1H-1,2,4-triazol-5-yl)thiazole-4-carboxamide]
6 | 7.97 | CCCSc1n[nH]c(NC(=O)c2csc(-c3ccc4c(c3)CCO4)n2)n1 [Compound 30, 2-(2,3-Dihydrobenzofuran-5-yl)-N-(3-(propylthio)-1H-1,2,4-triazol-5-yl)thiazole-4-carboxamide]
7 | 68.1 | O=C(Nc1nnc(C(=O)O)[nH]1)c1csc(-c2ccc3c(c2)CCO3)n1 [Compound 31, 5-(2-(2,3-Dihydrobenzofuran-5-yl)thiazole-4-carboxamido)-4H-1,2,4-triazole-3-carboxylic acid]
8 | 337 | O=C(Nc1nc(SCc2ccc(Cl)cc2)n[nH]1)c1csc(-c2ccc3c(c2)CCO3)n1 [Compound 33, N-(3-((4-Chlorobenzyl)thio)-1H-1,2,4-triazol-5-yl)-2-(2,3-dihydrobenzofuran-5-yl)thiazole-4-carboxamide]
9 | 38.1 | CC(C)CSc1n[nH]c(NC(=O)c2csc(-c3ccc4c(c3)CCO4)n2)n1 [Compound 34, 2-(2,3-Dihydrobenzofuran-5-yl)-N-(3-(isobutylthio)-1H-1,2,4-triazol-5-yl)thiazole-4-carboxamide]
10 | 112 | O=C(Nc1nc(CCc2ccccc2)n[nH]1)c1csc(-c2ccc3c(c2)CCO3)n1 [Compound 36, 2-(2,3-Dihydrobenzofuran-5-yl)-N-(3-phenethyl-1H-1,2,4-triazol-5-yl)thiazole-4-carboxamide]
11 | 56 | O=C(Nc1nc(SCCc2ccccc2)n[nH]1)c1csc(-c2ccc3c(c2)CCO3)n1 [Compound 37, 2-(2,3-Dihydrobenzofuran-5-yl)-N-(3-(phenethylthio)-1H-1,2,4-triazol-5-yl)thiazole-4-carboxamide]
12 | 3.97 | N#CCSc1n[nH]c(NC(=O)c2csc(-c3ccc4c(c3)CCO4)n2)n1 [Compound 38, N-(3-((Cyanomethyl)thio)-1H-1,2,4-triazol-5-yl)-2-(2,3-dihydrobenzofuran-5-yl)thiazole-4-carboxamide]
13 | 11.9 | C=CCSc1n[nH]c(NC(=O)c2csc(-c3ccc4c(c3)CCO4)n2)n1 [Compound 39, N-(3-(Allylthio)-1H-1,2,4-triazol-5-yl)-2-(2,3-dihydrobenzofuran-5-yl)thiazole-4-carboxamide]
14 | 15.7 | O=C(Nc1nc2ccc(CN3CCOCC3)cc2s1)c1csc(-c2ccc3c(c2)CCO3)n1 [Compound 40, 2-(2,3-Dihydrobenzofuran-5-yl)-N-(6-(morpholinomethyl)benzo[d]thiazol-2-yl)thiazole-4-carboxamide]
15 | 2.06 | O=C(Nc1nc(-c2ccncc2)n[nH]1)c1csc(-c2ccc3c(c2)CCO3)n1 [Compound 42, 2-(2,3-Dihydrobenzofuran-5-yl)-N-(3-(pyridin-4-yl)-1H-1,2,4-triazol-5-yl)thiazole-4-carboxamide]
16 | 535 | CS(=O)(=O)c1n[nH]c(NC(=O)c2csc(-c3ccc4c(c3)CCO4)n2)n1 [Compound 43, 2-(2,3-Dihydrobenzofuran-5-yl)-N-(3-(methylsulfonyl)-1H-1,2,4-triazol-5-yl)thiazole-4-carboxamide]
17 | 5.57 | O=C(Nc1nc2cc(C(=O)c3cccs3)ccc2[nH]1)c1csc(-c2ccc3c(c2)CCO3)n1 [Compound 48, 2-(2,3-Dihydro-1-benzofuran-5-yl)-N-[5-(thiophene-2-carbonyl)-1H-1,3-benzodiazol-2-yl]-1,3-thiazole-4-carboxamide]

Row | IC50 [nM] | SMILES
18 | 6.63 | O=C(Nc1nc2cc(C(=O)c3ccc[nH]3)ccc2[nH]1)c1csc(-c2ccc3c(c2)CCO3)n1 [Compound 49, 2-(2,3-Dihydro-1-benzofuran-5-yl)-N-[5-(H-pyrrole-2-carbonyl)-1H-1,3-benzodiazol-2-yl]-1,3-thiazole-4-carboxamide]
19 | 6.73 | O=C(Nc1nc2ccccc2[nH]1)c1csc(-c2ccc3c(c2)CCO3)n1 [Compound 50, N-(1H-1,3-Benzodiazol-2-yl)-2-(2,3-dihydro-1-benzofuran-5-yl)-1,3-thiazole-4-carboxamide]
20 | 9.17 | O=C(Nc1nc2ccc(C(=O)N3CCOCC3)cc2s1)c1csc(-c2ccc3c(c2)CCO3)n1 [Compound 51, 2-(2,3-Dihydro-1-benzofuran-5-yl)-N-[6-(morpholine-4-carbonyl)-1,3-benzothiazol-2-yl]-1,3-thiazole-4-carboxamide]
21 | 12.6 | O=C(Nc1nnc(N2CCCCC2)s1)c1csc(-c2ccc3c(c2)CCO3)n1 [Compound 52, 2-(2,3-Dihydro-1-benzofuran-5-yl)-N-[5-(piperidin-1-yl)-1,3,4-thiadiazol-2-yl]-1,3-thiazole-4-carboxamide]
22 | 14.4 | CCOC(=O)C1CCN(c2nnc(NC(=O)c3csc(-c4ccc5c(c4)CCO5)n3)s2)CC1 [Compound 53, Ethyl 1-{5-[2-(2,3-dihydro-1-benzofuran-5-yl)-1,3-thiazole-4-amido]-1,3,4-thiadiazol-2-yl}piperidine-4-carboxylate]
23 | 17.6 | Cn1c(NC(=O)c2csc(-c3ccc4c(c3)CCO4)n2)nc2ccccc21 [Compound 54, 2-(2,3-Dihydro-1-benzofuran-5-yl)-N-(1-methyl-1H-1,3-benzodiazol-2-yl)-1,3-thiazole-4-carboxamide]
24 | 20.6 | CCOC(=O)c1c[nH]nc1NC(=O)c1csc(-c2ccc3c(c2)CCO3)n1 [Compound 55, Ethyl 3-[2-(2,3-dihydro-1-benzofuran-5-yl)-1,3-thiazole-4-amido]-1H-pyrazole-4-carboxylate]
25 | 21.7 | O=C(Nc1nnc(N2CCOCC2)s1)c1csc(-c2ccc3c(c2)CCO3)n1 [Compound 56, 2-(2,3-Dihydro-1-benzofuran-5-yl)-N-[5-(morpholin-4-yl)-1,3,4-thiadiazol-2-yl]-1,3-thiazole-4-carboxamide]
26 | 26.4 | CN1CCN(c2nnc(NC(=O)c3csc(-c4ccc5c(c4)CCO5)n3)s2)CC1 [Compound 57, 2-(2,3-Dihydro-1-benzofuran-5-yl)-N-[5-(4-methylpiperazin-1-yl)-1,3,4-thiadiazol-2-yl]-1,3-thiazole-4-carboxamide]
27 | 27.6 | Cc1cnc(NC(=O)c2csc(-c3ccc4c(c3)CCO4)n2)s1 [Compound 58, 2-(2,3-Dihydro-1-benzofuran-5-yl)-N-(5-methyl-1,3-thiazol-2-yl)-1,3-thiazole-4-carboxamide]
28 | 31.5 | O=C(Nc1nnc(-c2ccncc2)s1)c1csc(-c2ccc3c(c2)CCO3)n1 [Compound 59, 2-(2,3-Dihydro-1-benzofuran-5-yl)-N-[5-(pyridin-4-yl)-1,3,4-thiadiazol-2-yl]-1,3-thiazole-4-carboxamide]
29 | 38.3 | O=C(c1ccccc1)c1ccc2[nH]c(NC(=O)c3csc(-c4ccc5c(c4)CCO5)n3)nc2c1 [Compound 60, N-(5-Benzoyl-1H-1,3-benzodiazol-2-yl)-2-(2,3-dihydro-1-benzofuran-5-yl)-1,3-thiazole-4-carboxamide]
30 | 39.1 | CCOC(=O)CSc1n[nH]c(NC(=O)c2csc(-c3ccc4c(c3)CCO4)n2)n1 [Compound 61, Ethyl 2-({5-[2-(2,3-dihydro-1-benzofuran-5-yl)-1,3-thiazole-4-amido]-1H-1,2,4-triazol-3-yl}sulfanyl)acetate]
31 | 42.4 | O=C(Nc1cc[nH]n1)c1csc(-c2ccc3c(c2)CCO3)n1 [Compound 62, 2-(2,3-Dihydro-1-benzofuran-5-yl)-N-(1H-pyrazol-3-yl)-1,3-thiazole-4-carboxamide]
32 | 47.1 | O=C(Nc1nc[nH]n1)c1csc(-c2ccc3c(c2)CCO3)n1 [Compound 63, 2-(2,3-Dihydro-1-benzofuran-5-yl)-N-(1H-1,2,4-triazol-3-yl)-1,3-thiazole-4-carboxamide]
33 | 48.3 | COc1nc(NC(=O)c2csc(-c3ccc4c(c3)CCO4)n2)ns1 [Compound 64, 2-(2,3-Dihydro-1-benzofuran-5-yl)-N-(5-methoxy-1,2,4-thiadiazol-3-yl)-1,3-thiazole-4-carboxamide]
34 | 48.7 | O=C(Nc1nccs1)c1csc(-c2ccc3c(c2)CCO3)n1 [Compound 65, 2-(2,3-Dihydro-1-benzofuran-5-yl)-N-(1,3-thiazol-2-yl)-1,3-thiazole-4-carboxamide]
